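Here, GI50 denotes the concentration required for 50% inhibition of growth. TGI is the concentration that stops growth completely.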
Legend:
Assay in all cases: growth of human tumour cells (NCI), 384-well format
786-0 renal = tested on: 786-0 renal
A549 NSCLC = tested on: A549 NSCLC
ACHN renal = tested on: ACHN renal
CAKI-1 renal = tested on: CAKI-1 renal
CCRF-CEM leukemia = tested on: CCRF-CEM leukemia
COLO 205 colon = tested on: COLO 205 colon
DU-145 prostate = tested on: DU-145 prostate
EKVX NSCLC = tested on: EKVX NSCLC
HCC-2998 colon = tested on: HCC-2998 colon
HCT-116 colon = tested on: HCT-116 colon
HCT-15 colon = tested on: HCT-15 colon
HOP-62 NSCLC = tested on: HOP-62 NSCLC
HOP-92 NSCLC = tested on: HOP-92 NSCLC
HT29 colon = tested on: HT29 colon
IGROV1 ovarian = tested on: IGROV1 ovarian
K-562 leukemia = tested on: K-562 leukemia
KM12 colon = tested on: KM12 colon
LOX IMVI melanoma = tested on: LOX IMVI melanoma
M14 melanoma = tested on: M14 melanoma
MALME-3M melanoma = tested on: MALME-3M melanoma
MCF7 breast = tested on: MCF7 breast
MDA-MB-435 melanoma = tested on: MDA-MB-435 melanoma
MDA-MB-468 breast = tested on: MDA-MB-468 breast
MOLT-4 leukemia = tested on: MOLT-4 leukemia
NCI-H226 lung = tested on: NCI-H226 lung
NCI-H460 NSCLC = tested on: NCI-H460 NSCLC
NCI-H522 lung = tested on: NCI-H522 lung
NCI/ADR-RES ovarian = tested on: NCI/ADR-RES ovarian
OVCAR-3 ovarian = tested on: OVCAR-3 ovarian
OVCAR-4 ovarian = tested on: OVCAR-4 ovarian
OVCAR-5 ovarian = tested on: OVCAR-5 ovarian
PC-3 prostate = tested on: PC-3 prostate
RPMI-8226 leukemia = tested on: RPMI-8226 leukemia
RXF 393 renal = tested on: RXF 393 renal
SF-268 CNS = tested on: SF-268 CNS
SF-295 CNS = tested on: SF-295 CNS
SK-MEL-2 melanoma = tested on: SK-MEL-2 melanoma
SK-MEL-28 melanoma = tested on: SK-MEL-28 melanoma
SK-MEL-5 melanoma = tested on: SK-MEL-5 melanoma
SK-OV-3 ovarian = tested on: SK-OV-3 ovarian
SNB-75 CNS = tested on: SNB-75 CNS
SR leukemia = tested on: SR leukemia
SW-620 colon = tested on: SW-620 colon
T-47D breast = tested on: T-47D breast
TK-10 renal = tested on: TK-10 renal
U251 glioblastoma = tested on: U251 glioblastoma
UO-31 renal = tested on: UO-31 renal

## CC1=C(c2cccc(O)c2)[C@H](c2ccc(OCCN3CC(CF)C3)cc2)Oc2ccc(O)cc21
786-0 renal
  GI50: 2.65 µM
  TGI: 7.32 µM
A549 NSCLC
  GI50: 9.02 µM
  TGI: 21.2 µM
ACHN renal
  GI50: 11.1 µM
  TGI: 23.2 µM
CAKI-1 renal
  GI50: 3.42 µM
  TGI: 13.5 µM
CCRF-CEM leukemia
  GI50: 2.11 µM
  TGI: 4.88 µM
COLO 205 colon
  GI50: 3.09 µM
  TGI: 8.69 µM
DU-145 prostate
  GI50: 10.8 µM
  TGI: 22.7 µM
EKVX NSCLC
  GI50: 5.1 µM
  TGI: 17.5 µM
HCC-2998 colon
  GI50: 1.54 µM
  TGI: 3.23 µM
HCT-116 colon
  GI50: 3.62 µM
  TGI: 13.8 µM
HCT-15 colon
  GI50: 3.57 µM
  TGI: 13.2 µM
HOP-62 NSCLC
  GI50: 4.55 µM
  TGI: 15 µM
HOP-92 NSCLC
  GI50: 3.83 µM
  TGI: 13.1 µM
HT29 colon
  GI50: 1.94 µM
  TGI: 3.58 µM
IGROV1 ovarian
  GI50: 4.88 µM
  TGI: 16.9 µM
K-562 leukemia
  GI50: 1.73 µM
  TGI: 3.29 µM
KM12 colon
  GI50: 3.21 µM
  TGI: 10.2 µM
LOX IMVI melanoma
  GI50: 1.77 µM
  TGI: 3.34 µM
M14 melanoma
  GI50: 1.89 µM
  TGI: 3.88 µM
MALME-3M melanoma
  GI50: 1.64 µM
  TGI: 3.05 µM
MCF7 breast
  TGI: 1.97 µM
MDA-MB-435 melanoma
  GI50: 10.7 µM
  TGI: 22.6 µM
MDA-MB-468 breast
  GI50: 1.94 µM
  TGI: 4.35 µM
MOLT-4 leukemia
  GI50: 1.58 µM
  TGI: 2.97 µM
NCI-H226 lung
  GI50: 6.19 µM
  TGI: 19.4 µM
NCI-H460 NSCLC
  GI50: 2.18 µM
  TGI: 4.88 µM
NCI-H522 lung
  GI50: 11.1 µM
  TGI: 23.1 µM
NCI/ADR-RES ovarian
  GI50: 16.2 µM
  TGI: 29.8 µM
OVCAR-3 ovarian
  GI50: 4.05 µM
  TGI: 15.4 µM
OVCAR-4 ovarian
  GI50: 5.79 µM
  TGI: 17.8 µM
OVCAR-5 ovarian
  GI50: 10.3 µM
  TGI: 22.1 µM
PC-3 prostate
  GI50: 4.5 µM
  TGI: 16.9 µM
RPMI-8226 leukemia
  GI50: 1.82 µM
  TGI: 4.02 µM
RXF 393 renal
  GI50: 1.87 µM
  TGI: 5.29 µM
SF-268 CNS
  GI50: 4.24 µM
  TGI: 15.6 µM
SF-295 CNS
  GI50: 11.6 µM
  TGI: 23.9 µM
SK-MEL-2 melanoma
  GI50: 1.96 µM
  TGI: 3.78 µM
SK-MEL-28 melanoma
  GI50: 3.05 µM
  TGI: 11.6 µM
SK-MEL-5 melanoma
  GI50: 1.68 µM
  TGI: 3.07 µM
SK-OV-3 ovarian
  GI50: 5.77 µM
  TGI: 18.3 µM
SNB-75 CNS
  GI50: 2.36 µM
  TGI: 7.79 µM
SR leukemia
  GI50: 1.79 µM
  TGI: 3.23 µM
SW-620 colon
  GI50: 4.9 µM
  TGI: 16.6 µM
T-47D breast
  GI50: 1.11 µM
  TGI: 12.4 µM
TK-10 renal
  GI50: 5.15 µM
  TGI: 17.6 µM
U251 glioblastoma
  GI50: 5.35 µM
  TGI: 17.1 µM
UO-31 renal
  GI50: 9.8 µM
  TGI: 21.5 µM

## Cc1cc([N+](=O)[O-])c(NS(=O)(=O)c2cccc(C(=O)O)c2)cc1-c1cccnc1
786-0 renal
  GI50: > 100 µM
  TGI: > 100 µM
A549 NSCLC
  GI50: > 100 µM
  TGI: > 100 µM
ACHN renal
  GI50: > 100 µM
  TGI: > 100 µM
CAKI-1 renal
  GI50: > 100 µM
  TGI: > 100 µM
CCRF-CEM leukemia
  GI50: > 100 µM
  TGI: > 100 µM
COLO 205 colon
  GI50: > 100 µM
  TGI: > 100 µM
DU-145 prostate
  GI50: > 100 µM
  TGI: > 100 µM
EKVX NSCLC
  GI50: > 100 µM
  TGI: > 100 µM
HCC-2998 colon
  GI50: > 100 µM
  TGI: > 100 µM
HCT-116 colon
  GI50: > 100 µM
  TGI: > 100 µM
HCT-15 colon
  GI50: > 100 µM
  TGI: > 100 µM
HOP-62 NSCLC
  GI50: > 100 µM
  TGI: > 100 µM
HOP-92 NSCLC
  GI50: > 100 µM
  TGI: > 100 µM
HT29 colon
  GI50: > 100 µM
  TGI: > 100 µM
IGROV1 ovarian
  GI50: > 100 µM
  TGI: > 100 µM
K-562 leukemia
  GI50: > 100 µM
  TGI: > 100 µM
KM12 colon
  GI50: 16.8 µM
  TGI: > 100 µM
LOX IMVI melanoma
  GI50: > 100 µM
  TGI: > 100 µM
M14 melanoma
  GI50: > 100 µM
  TGI: > 100 µM
MALME-3M melanoma
  GI50: > 100 µM
  TGI: > 100 µM
MCF7 breast
  GI50: > 100 µM
  TGI: > 100 µM
MDA-MB-435 melanoma
  GI50: > 100 µM
  TGI: > 100 µM
MDA-MB-468 breast
  GI50: > 100 µM
  TGI: > 100 µM
MOLT-4 leukemia
  GI50: > 100 µM
  TGI: > 100 µM
NCI-H226 lung
  GI50: > 100 µM
  TGI: > 100 µM
NCI-H460 NSCLC
  GI50: > 100 µM
  TGI: > 100 µM
NCI-H522 lung
  GI50: > 100 µM
  TGI: > 100 µM
NCI/ADR-RES ovarian
  GI50: > 100 µM
  TGI: > 100 µM
OVCAR-3 ovarian
  GI50: > 100 µM
  TGI: > 100 µM
OVCAR-4 ovarian
  GI50: > 100 µM
  TGI: > 100 µM
OVCAR-5 ovarian
  GI50: > 100 µM
  TGI: > 100 µM
PC-3 prostate
  GI50: > 100 µM
  TGI: > 100 µM
RPMI-8226 leukemia
  GI50: > 100 µM
  TGI: > 100 µM
RXF 393 renal
  GI50: > 100 µM
  TGI: > 100 µM
SF-268 CNS
  GI50: > 100 µM
  TGI: > 100 µM
SF-295 CNS
  GI50: > 100 µM
  TGI: > 100 µM
SK-MEL-2 melanoma
  GI50: > 100 µM
  TGI: > 100 µM
SK-MEL-28 melanoma
  GI50: > 100 µM
  TGI: > 100 µM
SK-MEL-5 melanoma
  GI50: > 100 µM
  TGI: > 100 µM
SK-OV-3 ovarian
  GI50: > 100 µM
  TGI: > 100 µM
SNB-75 CNS
  GI50: > 100 µM
  TGI: > 100 µM
SR leukemia
  GI50: > 61.5 µM
  TGI: > 100 µM
SW-620 colon
  GI50: > 100 µM
  TGI: > 100 µM
T-47D breast
  GI50: > 100 µM
  TGI: > 100 µM
TK-10 renal
  GI50: > 100 µM
  TGI: > 100 µM
U251 glioblastoma
  GI50: > 100 µM
  TGI: > 100 µM
UO-31 renal
  GI50: > 100 µM
  TGI: > 100 µM

Source: PubChem BioAssay (NCI)
